Laboratory results from ChEMBL document CHEMBL1201862, “PubChem BioAssay data set” (2004).
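In this assay, cells in 96-well plates receive the compound at five concentrations for 48 hours. Endpoints are linearly interpolated between the surrounding concentrations. GI50: concentration for 50% inhibition of growth.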 Active and inactive are the calls of the source. No stated cut-off is given here; in the data, active = GI50 up to about 1.1 µM and inactive = higher.

Key:
Test in all cases: NCI-60 cell line screen, 48 h
COLO 205 = tested on: COLO 205
KM12 = tested on: KM12
SK-MEL-28 = tested on: SK-MEL-28
RXF 393 = tested on: RXF 393
SNB-75 = tested on: SNB-75
SK-MEL-5 = tested on: SK-MEL-5
786-0 = tested on: 786-0
TK-10 = tested on: TK-10
A549 = tested on: A549
SN12C = tested on: SN12C
UACC-62 = tested on: UACC-62
NCI/ADR-RES = tested on: NCI/ADR-RES
SW-620 = tested on: SW-620
SF-268 = tested on: SF-268
MDA-N = tested on: MDA-N
MCF7 = tested on: MCF7
CCRF-CEM = tested on: CCRF-CEM
EKVX = tested on: EKVX
OVCAR-5 = tested on: OVCAR-5
HOP-92 = tested on: HOP-92
SK-OV-3 = tested on: SK-OV-3
MDA-MB-231 = tested on: MDA-MB-231
PC-3 = tested on: PC-3
T47D = tested on: T47D
OVCAR-3 = tested on: OVCAR-3
SK-MEL-2 = tested on: SK-MEL-2
SNB-19 = tested on: SNB-19
Hs-578T = tested on: Hs-578T
K562 = tested on: K562
HCT-15 = tested on: HCT-15
A498 = tested on: A498
MDA-MB-435 = tested on: MDA-MB-435
U-251 = tested on: U-251
M14 = tested on: M14
HCT-116 = tested on: HCT-116
NCI-H460 = tested on: NCI-H460
HT-29 = tested on: HT-29
NCI-H23 = tested on: NCI-H23
RPMI-8226 = tested on: RPMI-8226
CAKI-1 = tested on: CAKI-1
UACC-257 = tested on: UACC-257
DU-145 = tested on: DU-145
OVCAR-4 = tested on: OVCAR-4
SF-539 = tested on: SF-539
OVCAR-8 = tested on: OVCAR-8
LOX IMVI = tested on: LOX IMVI
IGROV-1 = tested on: IGROV-1
HOP-62 = tested on: HOP-62
SF-295 = tested on: SF-295
Malme-3M = tested on: Malme-3M
NCI-H522 = tested on: NCI-H522
ACHN = tested on: ACHN
SR = tested on: SR
BT-549 = tested on: BT-549
HL-60 = tested on: HL-60
NCI-H226 = tested on: NCI-H226
UO-31 = tested on: UO-31
MOLT-4 = tested on: MOLT-4

SMILES: N#CC1CNC(N)NC1N (stereo not drawn)
- GI50 (COLO 205): > 100 µM (inactive)
- GI50 (KM12): > 100 µM (inactive)
- GI50 (SK-MEL-28): > 100 µM (inactive)
- GI50 (RXF 393): > 100 µM (inactive)
- GI50 (SNB-75): > 100 µM (inactive)
- GI50 (SK-MEL-5): > 100 µM (inactive)
- GI50 (786-0): > 100 µM (inactive)
- GI50 (TK-10): > 100 µM (inactive)
- GI50 (A549): > 100 µM (inactive)
- GI50 (SN12C): > 100 µM (inactive)
- GI50 (UACC-62): > 100 µM (inactive)
- GI50 (NCI/ADR-RES): > 100 µM (inactive)
- GI50 (SW-620): > 100 µM (inactive)
- GI50 (SF-268): > 100 µM (inactive)
- GI50 (MDA-N): > 100 µM (inactive)
- GI50 (MCF7): > 100 µM (inactive)
- GI50 (CCRF-CEM): < 0.01 µM (active)
- GI50 (EKVX): > 100 µM (inactive)
- GI50 (OVCAR-5): > 100 µM (inactive)
- GI50 (HOP-92): > 100 µM (inactive)
- GI50 (SK-OV-3): > 100 µM (inactive)
- GI50 (MDA-MB-231): > 100 µM (inactive)
- GI50 (PC-3): > 100 µM (inactive)
- GI50 (T47D): > 100 µM (inactive)
- GI50 (OVCAR-3): > 100 µM (inactive)
- GI50 (SK-MEL-2): > 100 µM (inactive)
- GI50 (SNB-19): > 100 µM (inactive)
- GI50 (Hs-578T): > 100 µM (inactive)
- GI50 (K562): 64.1 µM (inactive)
- GI50 (HCT-15): > 100 µM
- GI50 (A498): > 100 µM (inactive)
- GI50 (MDA-MB-435): > 100 µM (inactive)
- GI50 (U-251): > 100 µM (inactive)
- GI50 (M14): > 100 µM (inactive)
- GI50 (HCT-116): > 100 µM (inactive)
- GI50 (NCI-H460): > 100 µM (inactive)
- GI50 (HT-29): > 100 µM (inactive)
- GI50 (NCI-H23): > 100 µM (inactive)
- GI50 (RPMI-8226): > 100 µM (inactive)
- GI50 (CAKI-1): > 100 µM (inactive)
- GI50 (UACC-257): > 100 µM (inactive)
- GI50 (DU-145): > 100 µM (inactive)
- GI50 (OVCAR-4): > 100 µM (inactive)
- GI50 (SF-539): > 100 µM (inactive)
- GI50 (OVCAR-8): > 100 µM (inactive)
- GI50 (LOX IMVI): > 100 µM (inactive)
- GI50 (IGROV-1): > 100 µM (inactive)
- GI50 (HOP-62): > 100 µM (inactive)
- GI50 (SF-295): > 100 µM (inactive)
- GI50 (Malme-3M): > 100 µM (inactive)
- GI50 (NCI-H522): > 100 µM (inactive)
- GI50 (ACHN): > 100 µM (inactive)
- GI50 (SR): 34 µM (inactive)
- GI50 (BT-549): > 100 µM (inactive)
- GI50 (HL-60): > 100 µM (inactive)
- GI50 (NCI-H226): > 100 µM (inactive)

SMILES: COc1ccc2c(C(=O)c3c(C)n(CCN4CCOCC4)c4ccccc34)cccc2c1
- GI50 (COLO 205): 12.2 µM (inactive)
- GI50 (KM12): 22.9 µM (inactive)
- GI50 (SK-MEL-28): > 100 µM (inactive)
- GI50 (RXF 393): 22.1 µM (inactive)
- GI50 (SK-MEL-5): 17.5 µM (inactive)
- GI50 (UO-31): 34 µM (inactive)
- GI50 (786-0): 27.7 µM (inactive)
- GI50 (TK-10): 58.5 µM (inactive)
- GI50 (A549): 24.5 µM (inactive)
- GI50 (SN12C): 71 µM (inactive)
- GI50 (UACC-62): 18.2 µM (inactive)
- GI50 (NCI/ADR-RES): 16.9 µM (inactive)
- GI50 (SW-620): 1.27 µM (inactive)
- GI50 (SF-268): 16.1 µM (inactive)
- GI50 (MDA-N): 17.9 µM (inactive)
- GI50 (MCF7): 11.3 µM (inactive)
- GI50 (CCRF-CEM): 2.77 µM (inactive)
- GI50 (EKVX): 31.6 µM (inactive)
- GI50 (OVCAR-5): > 100 µM (inactive)
- GI50 (HOP-92): 19.8 µM (inactive)
- GI50 (SK-OV-3): 39.6 µM (inactive)
- GI50 (MDA-MB-231): 22.6 µM (inactive)
- GI50 (PC-3): 12.7 µM (inactive)
- GI50 (T47D): 17.4 µM (inactive)
- GI50 (OVCAR-3): 12.1 µM (inactive)
- GI50 (SK-MEL-2): 21.3 µM (inactive)
- GI50 (SNB-19): 46.1 µM (inactive)
- GI50 (Hs-578T): 10.8 µM (inactive)
- GI50 (K562): 18.7 µM (inactive)
- GI50 (HCT-15): 21.3 µM
- GI50 (A498): 81.8 µM (inactive)
- GI50 (MDA-MB-435): 5.6 µM (inactive)
- GI50 (U-251): 15.3 µM (inactive)
- GI50 (M14): 22.3 µM (inactive)
- GI50 (HCT-116): 25.5 µM (inactive)
- GI50 (NCI-H460): 29 µM (inactive)
- GI50 (HT-29): 21 µM (inactive)
- GI50 (NCI-H23): 18.8 µM (inactive)
- GI50 (MOLT-4): 19.4 µM (inactive)
- GI50 (RPMI-8226): 24.7 µM (inactive)
- GI50 (CAKI-1): 59 µM (inactive)
- GI50 (UACC-257): 20.3 µM (inactive)
- GI50 (DU-145): 38 µM (inactive)
- GI50 (OVCAR-4): 21.2 µM (inactive)
- GI50 (SF-539): 84.3 µM (inactive)
- GI50 (OVCAR-8): 18.8 µM (inactive)
- GI50 (LOX IMVI): 18.9 µM (inactive)
- GI50 (IGROV-1): 36.6 µM (inactive)
- GI50 (HOP-62): 71.9 µM (inactive)
- GI50 (SF-295): 16.8 µM (inactive)
- GI50 (Malme-3M): 17.5 µM (inactive)
- GI50 (NCI-H522): 18.7 µM (inactive)
- GI50 (ACHN): 37.5 µM (inactive)
- GI50 (SR): 19.2 µM (inactive)
- GI50 (BT-549): 20.2 µM (inactive)
- GI50 (HL-60): 4.93 µM (inactive)
- GI50 (NCI-H226): > 100 µM (inactive)
